Experimental data taken from patent publication US20240018120A1, “MAGL INHIBITORS” (H. LUNDBECK A/S, priority 2020, published 2024).

How the values were obtained:
MAGL [1] = target: T1, MAGL (Rattus norvegicus, UniProt Q8R431); test: MAGL IC50 values marked (rat) in Table 1; type: biochemical; details: cell marked (rat) in the human PC3 column
T1 sequence (Q8R431 1-303): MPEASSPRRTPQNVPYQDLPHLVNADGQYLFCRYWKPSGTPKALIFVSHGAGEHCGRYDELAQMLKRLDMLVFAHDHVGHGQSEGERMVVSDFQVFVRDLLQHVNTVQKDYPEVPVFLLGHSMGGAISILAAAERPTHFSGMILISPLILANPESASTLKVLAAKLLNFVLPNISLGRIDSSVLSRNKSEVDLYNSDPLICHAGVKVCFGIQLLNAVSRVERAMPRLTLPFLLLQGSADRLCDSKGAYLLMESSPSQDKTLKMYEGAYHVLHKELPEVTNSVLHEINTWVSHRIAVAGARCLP

[2] = system: kainic acid seizure model; test: Kainic acid seizure model in the rat; type: in vivo
Procedure: Kainic acid is an analog of the excitatory neurotransmitter, glutamate and acts as an agonist of kainic acid receptors. After systemic injection, kainic acid induces prolonged excitatory responses with many of the features of human temporal lobe epilepsy.
Rats, placed in individual Plexiglas cages (33×21×18 cm), are injected with kainic acid (20 mg/kg i.p.). The occurrences of the following symptoms are noted over a 120-minute period 30 minutes after kainic acid injection: forelimb clonus, rearings and rearings with falling, clonic convulsions, tonic convulsions and death. The presence of each symptom and the latencies to the first appearance of the symptoms are measured. The number of forelimb clonus is counted.
12 rats are studied per group. The test is performed partially blind.
The test substances will be evaluated at multiple doses, administered p.o. 240 minutes before the test, and compared with the corresponding vehicle control group (Group 2, administered with 10% HP-b-CD in distilled water, p.o. 240 minutes before the test).
Example 6 was evaluated at 0.3, 1, 3 and 10 mg/kg, and Example 8 was evaluated at 1, 3 and 10 mg/kg, administered p.o. 4 hours before the test, and compared with a vehicle control group (administered with 10% HP-b-CD, p.o. 4 hours before the test).
Diazepam (16 mg/kg) used as reference substance, was administered p.o. 60 minutes before the test (0.5% HP-b-CD) and was compared with vehicle controls.
Quantitative data (latencies) with the test substance was analyzed by comparing treated groups with vehicle control using Kruskal-Wallis test followed by Mann-Whitney U test. Quantitative data with the reference substance will be analysed using Mann-Whitney U test.
Quantal data (frequencies) were analyzed by comparing treated groups with vehicle control using Fisher's Exact Probability tests.

[3] = system: rat formalin paw model of inflammatory pain; test: Rat formalin paw model of inflammatory pain; type: in vivo; details: 4 h pre-test, vs vehicle
Procedure: In the rat formalin paw model formalin is administered into the right […] of a rat in order to induce pain (observed by hind limb licking duration and frequency).
Male Sprague Dawley rats were divided into three cohorts to enable testing in the Laboras™ equipment to be carried out over three days in a balanced design to give treatment groups of 10. On the day of the study, male Sprague Dawley rats were weighed, tail marked and dosed orally with vehicle, test compound (0.1, 0.3, 0.6, 1, 3 or 10 mg/kg) or pregabalin (30 mg/kg) 4 h pre-test using a 5 mL/kg dosing volume. For Example 6 the vehicle used was 0.5% methylcellulose in water and for Example 8 the vehicle used was 20% HP-b-CD. Up to six animals were dosed at a time. After 4 h, rats received an intraplantar injection of 50 μL of a 2.5% v/v formalin solution into the right hind paw. Rats were immediately placed into the Laboras™ cages and data acquisition started. The primary measures recorded by Laboras™ for the formalin paw model are hind limb licking duration and frequency. Locomotion is also reported as maximum speed, average speed when moving or over the whole-time bin and distance travelled. After 40 min, when data acquisition was complete, rats were removed from the cages.
On removal from the test cages, rats were anaesthetised with the gaseous anaesthetic isoflurane (5% v/v isoflurane in oxygen) and blood samples were collected by cardiac puncture. Brains were then removed, rinsed in phosphate buffered saline (PBS), hemi-sected and frozen separately in liquid nitrogen.
Data were analysed with Statistica software (TIBCO, USA version 11.1). All data are expressed as means±standard error of the mean (sem) to one decimal place. […] Time course data were analysed by repeated measures analysis of variance (ANOVA) followed by one-way ANOVAs at each time point and subsequent Dunnett's post hoc tests. […]

MAGL [4] = target: T2, MAGL (Homo sapiens, UniProt Q99685); test: In vitro competitive activity-based protein profiling, PC3 human cell membrane proteomes; type: biochemical; parameters: endogenous in cells; host or cells: PC3 human cells (membrane proteome); details: human PC3 membrane proteome
T2 sequence (Q99685 1-303): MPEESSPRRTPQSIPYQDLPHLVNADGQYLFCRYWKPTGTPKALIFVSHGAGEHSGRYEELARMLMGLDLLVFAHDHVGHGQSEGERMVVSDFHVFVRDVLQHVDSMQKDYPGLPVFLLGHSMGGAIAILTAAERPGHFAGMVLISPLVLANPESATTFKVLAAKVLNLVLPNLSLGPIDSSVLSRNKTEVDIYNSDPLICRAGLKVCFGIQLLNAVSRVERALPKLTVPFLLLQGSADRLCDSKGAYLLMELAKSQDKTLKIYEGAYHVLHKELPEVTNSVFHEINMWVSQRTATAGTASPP
Outline: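 Competitive ABPP in PC3 membrane proteome (2.0 mg/mL protein): inhibitors preincubated 30 min at 37° C, then JW912-Bodipy probe added for 30 min at room temperature. MAGL band fluorescence after SDS-PAGE normalised to DMSO; IC50 from 4-parameter sigmoidal fit.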

[5] = system: cryopreserved human hepatocytes; test: In vitro human hepatocyte stability; type: in vitro ADME; details: human hepatocytes 0.5×10^6 cells/mL, 1 μM
Procedure: The metabolic stability of test articles (1 μM) in commercially sourced, pooled donor, cryopreserved human hepatocytes (0.5×10^6 cells/mL) was determined in duplicate. The CLint reactions (250 μL) were initiated by addition of test compound. Aliquots (25 μL) were taken at 0, 15, 30, 45, 60, 90, 120 and 240 minutes and then protein crashed with ice-cold acetonitrile containing internal standard then centrifuged (3220 g for 25 minutes). Supernatant was used for LC-MS/MS analysis. The in vitro half-life (in vitro t½) was determined from the slope value: in vitro t1/2=−0.693/k. Conversion of the in vitro t1/2 (in min) into the scale-up unbound intrinsic clearance (Scaled-up unbound CLint, in mL/min/kg) was done using the following equation (mean of duplicate determinations), with data shown in Table 5: Scaled-up unbound CLint=kV/N×scaling factor. V=incubation volume (0.25 mL); N=number of hepatocytes per well ([…]). Scaling factors for in vivo intrinsic clearance prediction are listed below: […]

[6] = system: maximal electroshock seizure threshold (MEST) model; test: Maximal electroshock seizure threshold (MEST) model in the rat; type: in vivo; details: 10 mg/kg p.o., 240 min pre-treatment
Procedure: In the MEST model, a low-intensity electrical current of high frequency and short duration is applied to induce tonic convulsions.
Animals were randomly assigned to vehicle, compound treatment or Lamotrigine dose groups. Animals were dosed at 5 mL/kg according to treatment groups (n=12 or 16/group), with either vehicle (0.5% MC) p.o. for Example 6, vehicle (10% HP-b-CD) for Example 8, test compound at 10 mg/kg p.o. 240 min pre-treatment time, or Lamotrigine p.o. 360 min pre-treatment time. Rats were individually assessed for production of a tonic hind limb extensor seizure following a single corneally delivered electroshock of 0.3 second duration, using an ‘up and down method’ of shock titration (Kimball A W et al., 1957). Thus, the first rat within a treatment group was given a shock at the expected or estimated CC50 current (current producing tonic hind limb extensor seizures in 50% of animals). […] This procedure was continued for all rats within a treatment group. Induction of seizure was measured as an all-or-nothing effect scored as either present (+) or absent (0) for each animal. […]
Significant differences between drug-treated animals and controls were assessed according to Litchfield and Wilcoxon (1949) or One-Way ANOVA followed by Dunnett's multiple comparisons test.

SMILES	IC50 (MAGL [1]) [µM]	anticonvulsant effects in the kainic acid seizure test ([2]; dose-range 1-10 mg/kg p.o., 4 hours before the test, rat)	magnitude of the effects in the kainic acid seizure test compared with reference ([2]; middle-high doses, reference Diazepam 16 mg/kg p.o.)	measure of spontaneous pain (hind limb licking frequency) ([3]; 0.3 mg/kg and 0.6 mg/kg oral, late phase)	measure of spontaneous pain (hind limb licking frequency) ([3]; 1 mg/kg, 3 mg/kg and 10 mg/kg oral, both early and late phases)	IC50 (MAGL [4]) [µM]	Scaled-up unbound CLint [5] [L/h/kg]	anticonvulsant activity in the MEST (seizure threshold CC50) [6]
N#Cc1ccc(NC(=O)C2CC23CCN(C(=O)OC(C(F)(F)F)C(F)(F)F)CC3)cn1 (racemic) [Example 189, 1,1,1,3,3,3-hexafluoropropan-2-yl (+)1-((6-cyanopyridin-3-yl)carbamoyl)-6-azaspiro[2.5]octane-6-carboxylate]	0.0033							
O=C(O)COc1ccc(NC(=O)C2CC23CCN(C(=O)OC(C(F)(F)F)C(F)(F)F)CC3)cn1 (single isomer, unassigned) [Example 183, (R or S)-2-((5-(6-(((1,1,1,3,3,3-hexafluoropropan-2-yl)oxy)carbonyl)-6-azaspiro[2.5]octane-1-carboxamido)pyridin-2-yl)oxy)acetic acid]	0.39							
O=C(NC1CCOCC1)[C@H]1CC12CCN(C(=O)OC(C(F)(F)F)C(F)(F)F)CC2 [Example 8, 1,1,1,3,3,3-Hexafluoropropan-2-yl (S)-1-((tetrahydro-2H-pyran-4-yl)carbamoyl)-6-azaspiro[2.5]octane-6-carboxylate]		clear anticonvulsant effects	close to those observed with the reference substance, Diazepam	statistically significant reduction	statistically significant reduction	0.0657	0.465	anticonvulsant activity
